Laboratory results taken from patent publication US20100056519A1, “COMPOSITION AND METHOD FOR REDUCING PLATELET ACTIVATION AND FOR THE TREATMENT OF THROMBOTIC EVENTS” (priority 2008, published 2010).

Tests used:
Type in all cases: cell-based, human
PAC-1 (GPIIb/IIIa) = experiment: TRAP-stimulated whole blood flow cytometry, PAC-1; details: Mean ± SD
Procedure: (§1) The methodology employed was conventional aggregation induced by 5 μM ADP, 1 μg/ml collagen, 10 μM TRAP, whole blood aggregation with 1 μg/ml collagen, Ultegra, and PFA-100 Analyzers, expression of 14 intact, and TRAP-stimulated major receptors by whole blood flow cytometry were utilized to assess platelet activity after preincubation with escalating concentrations of E5555 (20 ng/ml, 50 ng/ml, and 100 ng/ml). The experiments were performed in healthy volunteers, CAD patients treated with ASA, and CAD patients treated with ASA and clopidogrel combination (n=10, for each group).
(§2) An Informed Consent was obtained from all volunteers. Drug users were excluded from data analysis. The study was approved by Quorum Institutional Review Board. All subjects underwent blood sampling after at least 30 minutes of rest and two or more hours of fasting. Blood (28 ml) was drawn between 8 and 10 a.m. in order to avoid any diurnal influence and sampled from an antecubital vein using a 21-gauge butterfly needle containing 3.2% sodium citrate (1:9 volume) after having discarded the first 1.5 ml of free running blood. Four Vacutainer tubes (7.0 ml) were collected for a total of 28 ml of whole blood-citrate mixture from each study participant. Chronologically, blood samples were delivered to the core laboratory facility within 45 minutes after drawing. Then all tubes of blood-citrate mixture were pooled. One portion of pooled blood (5 ml) was kept as an internal control and pretreated with the vehicle. The remaining blood (23 ml) was used for the in vitro exposure to E5555 at concentrations of 20 ng/ml, 50 ng/ml, and 100 ng/ml. […] The platelet aggregation studies, Rapid Analyzers measures, and flow cytometry preparations were initiated within no more than 110 minutes following the blood draw, incubation with the drug, and preparation of the samples.
(§3) Formation of platelet-leukocyte aggregates was assessed by dual labeling with pan-platelet marker (CD151), and then with CD14, the macrophage receptor for endotoxin lipopolysaccharides (PharMingen, and Coulter, San Diego, Calif., USA). The tubes were then covered with aluminum foil and incubated at 37° C. for 40 minutes with gentle rotation. After incubation, samples were immediately analyzed on a Becton Dickinson FACScan flow cytometer. The instrument was set up to measure forward light scatter, and FITC fluorescence. All parameters were collected using four-decade logarithmic amplification. The data was retrieved in list mode files and then analyzed. P selectin was expressed as percent positive cells. Other antigens were expressed as log mean fluorescence intensity.
(§4) For flow cytometry (TRAP-stimulated) all of the above flow cytometry experiments were identically repeated utilizing prestimulation with 10 μmol/L TRAP for 5 minutes at 37° C. To determine statistics, a Paired Sign Test was used to define significance of differences between vehicle and E5555-treated groups. The Mann-Whitney U test was used to analyze nonparametric data. Normally distributed data were expressed as mean±standard error (m±SE), and skewed data as median (range). All P-values were two sided. All analysis was performed using the SPSS v9.0 program (SPSS Inc., Chicago, Ill.).

GP37 (CD165) = experiment: TRAP-stimulated whole blood flow cytometry, GP37; details: Mean ± SD
Procedure: as §1, §2, §3, §4

WEDE15 = experiment: TRAP-stimulated whole blood flow cytometry, WEDE15; details: Mean ± SD
Procedure: as §1, §2, §3, §4

GPIb (CD42b) [1] = experiment: TRAP-stimulated whole blood flow cytometry, GPIb; details: Mean ± SD
Procedure: as §1, §2, §3, §4

SPAN-12 = experiment: TRAP-stimulated whole blood flow cytometry, SPAN-12; details: Mean ± SD
Procedure: as §1, §2, §3, §4

GPIb (CD42b) [2] = experiment: Unstimulated whole blood flow cytometry, GPIb; details: for GPIb (CD42b), Mean Fluorescence Intensity: unstimulated, Mean ± SD
Procedure: as §1, §2, §3

PECAM-1 (CD31) = experiment: TRAP-stimulated whole blood flow cytometry, PECAM-1; details: Mean ± SD
Procedure: as §1, §2, §3, §4

[3] = E5555 20 ng/ml, Patients (ASA + C)
[4] = E5555 50 ng/ml, Patients (ASA + C)
[5] = E5555 100 ng/ml, Patients (ASA + C)
[6] = E5555 100 ng/ml, Patients (ASA)

## Br.CCOc1cc2c(c(F)c1OCC)C(=N)N(CC(=O)c1cc(N3CCOCC3)c(OC)c(C(C)(C)C)c1)C2 [E5555, 1-(3-tert-butyl-4-methoxy-5-morpholinophenyl)-2-(5,6-diethoxy-7-fluoro-1-imino-1,3-dihydro-2H-isoindol-2-yl)ethanone hydrobromide]
PAC-1 (GPIIb/IIIa); [3]
  PAC-1 (GPIIb/IIIa), Mean Fluorescence Intensity: 41 ± 5 MFI
PAC-1 (GPIIb/IIIa); E5555 20 ng/ml, Patients (ASA)
  PAC-1 (GPIIb/IIIa), Mean Fluorescence Intensity: 52 ± 6 MFI
PAC-1 (GPIIb/IIIa); E5555 20 ng/ml, Volunteers
  PAC-1 (GPIIb/IIIa), Mean Fluorescence Intensity: 68 ± 8 MFI
PAC-1 (GPIIb/IIIa); [4]
  PAC-1 (GPIIb/IIIa), Mean Fluorescence Intensity: 9 ± 1 MFI
PAC-1 (GPIIb/IIIa); E5555 50 ng/ml, Patients (ASA)
  PAC-1 (GPIIb/IIIa), Mean Fluorescence Intensity: 9 ± 3 MFI
PAC-1 (GPIIb/IIIa); E5555 50 ng/ml, Volunteers
  PAC-1 (GPIIb/IIIa), Mean Fluorescence Intensity: 17 ± 9 MFI
PAC-1 (GPIIb/IIIa); [5]
  PAC-1 (GPIIb/IIIa), Mean Fluorescence Intensity: 5 ± 2 MFI
PAC-1 (GPIIb/IIIa); [6]
  PAC-1 (GPIIb/IIIa), Mean Fluorescence Intensity: 4 ± 1 MFI
PAC-1 (GPIIb/IIIa); E5555 100 ng/ml, Volunteers
  PAC-1 (GPIIb/IIIa), Mean Fluorescence Intensity: 7 ± 3 MFI
GP37 (CD165); [3]
  GP37 (CD165), Mean Fluorescence Intensity: 27 ± 4 MFI
GP37 (CD165); E5555 20 ng/ml, Patients (ASA)
  GP37 (CD165), Mean Fluorescence Intensity: 27 ± 5 MFI
GP37 (CD165); E5555 20 ng/ml, Volunteers
  GP37 (CD165), Mean Fluorescence Intensity: 32 ± 6 MFI
GP37 (CD165); [4]
  GP37 (CD165), Mean Fluorescence Intensity: 18 ± 4 MFI
GP37 (CD165); E5555 50 ng/ml, Patients (ASA)
  GP37 (CD165), Mean Fluorescence Intensity: 20 ± 7 MFI
GP37 (CD165); E5555 50 ng/ml, Volunteers
  GP37 (CD165), Mean Fluorescence Intensity: 28 ± 5 MFI
GP37 (CD165); [5]
  GP37 (CD165), Mean Fluorescence Intensity: 21 ± 9 MFI
GP37 (CD165); [6]
  GP37 (CD165), Mean Fluorescence Intensity: 22 ± 6 MFI
GP37 (CD165); E5555 100 ng/ml, Volunteers
  GP37 (CD165), Mean Fluorescence Intensity: 29 ± 4 MFI
WEDE15; [3]
  WEDE15, Mean Fluorescence Intensity: 33 ± 5 MFI
WEDE15; E5555 20 ng/ml, Patients (ASA)
  WEDE15, Mean Fluorescence Intensity: 38 ± 6 MFI
WEDE15; E5555 20 ng/ml, Volunteers
  WEDE15, Mean Fluorescence Intensity: 40 ± 7 MFI
WEDE15; [4]
  WEDE15, Mean Fluorescence Intensity: 34 ± 6 MFI
WEDE15; E5555 50 ng/ml, Patients (ASA)
  WEDE15, Mean Fluorescence Intensity: 39 ± 6 MFI
WEDE15; E5555 50 ng/ml, Volunteers
  WEDE15, Mean Fluorescence Intensity: 40 ± 5 MFI
WEDE15; [5]
  WEDE15, Mean Fluorescence Intensity: 33 ± 6 MFI
WEDE15; [6]
  WEDE15, Mean Fluorescence Intensity: 40 ± 8 MFI
WEDE15; E5555 100 ng/ml, Volunteers
  WEDE15, Mean Fluorescence Intensity: 40 ± 8 MFI
GPIb (CD42b) [1]; [3]
  GPIb (CD42b), Mean Fluorescence Intensity: 105 ± 14 MFI
GPIb (CD42b) [1]; E5555 20 ng/ml, Patients (ASA)
  GPIb (CD42b), Mean Fluorescence Intensity: 102 ± 9 MFI
GPIb (CD42b) [1]; E5555 20 ng/ml, Volunteers
  GPIb (CD42b), Mean Fluorescence Intensity: 134 ± 17 MFI
GPIb (CD42b) [1]; [4]
  GPIb (CD42b), Mean Fluorescence Intensity: 102 ± 19 MFI
GPIb (CD42b) [1]; E5555 50 ng/ml, Patients (ASA)
  GPIb (CD42b), Mean Fluorescence Intensity: 104 ± 17 MFI
GPIb (CD42b) [1]; E5555 50 ng/ml, Volunteers
  GPIb (CD42b), Mean Fluorescence Intensity: 125 ± 24 MFI
GPIb (CD42b) [1]; [5]
  GPIb (CD42b), Mean Fluorescence Intensity: 137 ± 18 MFI
GPIb (CD42b) [1]; [6]
  GPIb (CD42b), Mean Fluorescence Intensity: 100 ± 14 MFI
GPIb (CD42b) [1]; E5555 100 ng/ml, Volunteers
  GPIb (CD42b), Mean Fluorescence Intensity: 150 ± 26 MFI
SPAN-12; [3]
  SPAN-12, Mean Fluorescence Intensity: 9 ± 2 MFI
SPAN-12; E5555 20 ng/ml, Patients (ASA)
  SPAN-12, Mean Fluorescence Intensity: 12 ± 4 MFI
SPAN-12; E5555 20 ng/ml, Volunteers
  SPAN-12, Mean Fluorescence Intensity: 20 ± 3 MFI
SPAN-12; [4]
  SPAN-12, Mean Fluorescence Intensity: 9 ± 3 MFI
SPAN-12; E5555 50 ng/ml, Patients (ASA)
  SPAN-12, Mean Fluorescence Intensity: 9 ± 4 MFI
SPAN-12; E5555 50 ng/ml, Volunteers
  SPAN-12, Mean Fluorescence Intensity: 17 ± 5 MFI
SPAN-12; [5]
  SPAN-12, Mean Fluorescence Intensity: 11 ± 3 MFI
SPAN-12; [6]
  SPAN-12, Mean Fluorescence Intensity: 10 ± 6 MFI
SPAN-12; E5555 100 ng/ml, Volunteers
  SPAN-12, Mean Fluorescence Intensity: 17 ± 4 MFI
GPIb (CD42b) [2]; overall summary, stimulation not stated
  GPIb expression, effect in words: significant reduction
GPIb (CD42b) [2]; [3]
  GPIb (CD42b), Mean Fluorescence Intensity: 103 ± 7 MFI
GPIb (CD42b) [2]; E5555 20 ng/ml, Patients (ASA)
  GPIb (CD42b), Mean Fluorescence Intensity: 106 ± 5 MFI
GPIb (CD42b) [2]; E5555 20 ng/ml, Volunteers
  GPIb (CD42b), Mean Fluorescence Intensity: 162 ± 19 MFI
GPIb (CD42b) [2]; [4]
  GPIb (CD42b), Mean Fluorescence Intensity: 94 ± 12 MFI
GPIb (CD42b) [2]; E5555 50 ng/ml, Patients (ASA)
  GPIb (CD42b), Mean Fluorescence Intensity: 109 ± 7 MFI
GPIb (CD42b) [2]; E5555 50 ng/ml, Volunteers
  GPIb (CD42b), Mean Fluorescence Intensity: 145 ± 20 MFI
GPIb (CD42b) [2]; [5]
  GPIb (CD42b), Mean Fluorescence Intensity: 100 ± 15 MFI
GPIb (CD42b) [2]; [6]
  GPIb (CD42b), Mean Fluorescence Intensity: 111 ± 10 MFI
GPIb (CD42b) [2]; E5555 100 ng/ml, Volunteers
  GPIb (CD42b), Mean Fluorescence Intensity: 157 ± 16 MFI
PECAM-1 (CD31); [3]
  PECAM-1 (CD31), Mean Fluorescence Intensity: 58 ± 9 MFI
PECAM-1 (CD31); E5555 20 ng/ml, Patients (ASA)
  PECAM-1 (CD31), Mean Fluorescence Intensity: 50 ± 6 MFI
PECAM-1 (CD31); E5555 20 ng/ml, Volunteers
  PECAM-1 (CD31), Mean Fluorescence Intensity: 60 ± 9 MFI
PECAM-1 (CD31); [4]
  PECAM-1 (CD31), Mean Fluorescence Intensity: 60 ± 7 MFI
PECAM-1 (CD31); E5555 50 ng/ml, Patients (ASA)
  PECAM-1 (CD31), Mean Fluorescence Intensity: 54 ± 9 MFI
PECAM-1 (CD31); E5555 50 ng/ml, Volunteers
  PECAM-1 (CD31), Mean Fluorescence Intensity: 55 ± 10 MFI
PECAM-1 (CD31); [5]
  PECAM-1 (CD31), Mean Fluorescence Intensity: 57 ± 11 MFI
PECAM-1 (CD31); [6]
  PECAM-1 (CD31), Mean Fluorescence Intensity: 52 ± 12 MFI
PECAM-1 (CD31); E5555 100 ng/ml, Volunteers
  PECAM-1 (CD31), Mean Fluorescence Intensity: 60 ± 7 MFI
